From publication PMC9170106, “Pre-clinical evaluation of LASSBio-1491: From in vitro pharmacokinetic study to in vivo leishmanicidal activity” (PLoS ONE, 2022) come the findings set out here.

The nature of data set [1]: PAMPA-BBB permeability. An excerpt:
(§1) The parallel artificial membrane permeability assay uses 96-well plate in a “sandwich” type system, where one plate overlaps the other (PAMPA). […] The lipid mixture that impregnates the PVDF filter has a different constitution for the permeability tests for the blood-brain barrier (Brain lipid from pig extract in dodecane) and gastro-intestinal tract (L-α soy phosphatidylcholine in dodecane). In the PAMPA BBB and TGI assays, the optical density values obtained in the reading at each selected wavelength, for each of the compounds were analyzed in comparison with the values of several controls. In the case of the BBB, these values were used to elaborate an equation and determine the permeability coefficient (Pe), using a previously elaborated spreadsheet, and, for the TGI, these values were used to determine the absorbed fraction (Fa%), both using the Excel® program.
(In general: The PAMPA barrier holds no transporters, so it reflects passive diffusion.)

Data set [2] has as its system L. major promastigote 5-ASKH substrain. The experiment in a line: In vitro activity against promastigotes, 5-ASKH. In kind it is cell-based, Leishmania major. The method, then: L. major promastigotes LV39 (MRHO/SU/59/P) were obtained from João […] Preto Medical School- USP. L. major IOC/[…] promastigotes (MHOM/SU/1973/5-ASKH) were obtained from Leishmania collection of the Oswaldo Cruz Institute-Fiocruz. L. major promastigotes LV39 (MRHO/SU/59/P) and L. major IOC/[…] (MHOM/SU/1973/5-ASKH) were grown in a Schneider's medium (Sigma-Aldrich, St. […] The determination of the leishmanicidal activity of LASSBio-1491 against L. major promastigotes was carried out according to the methodology described by […] and colleagues (1996). […] After 48h of incubation in a Biochemical Oxygen Demand (B.O.D.) incubator, the promastigotes were counted using a hemocytometer. The results obtained were expressed as the mean ± S.E.M. of the number of promastigotes from triplicate cultures of representative assays, with the data analyzed by ANOVA and Dunnett hoc tests, considering a significance level of p < 0.05.

Data set [3] has as its system L. major LV39. Put plainly: In vivo activity against Leishmania major LV39 substrain. Set-up: species or system BALB/c mice. The method, then: Thus, 6-week-old female BALB/c mice weighing approximately 20 g were used. […] Briefly, ketamine (80mg/kg) and xylazine (8 mg/kg) were simultaneously used to anesthetize the mice by intraperitoneal injection. The promastigotes of L. major LV39 substrain in the stationary phase, harvested after the third passage (obtained from parasites frozen), were inoculated subcutaneously at a concentration of 1x 10^5 parasites in the right ear of mice. […] The size of the lesions was measured using a pachymeter. Thiopental (150 mg/kg, i.p.) was used to euthanize the mice and the quantitative limiting-dilution assay was used to determine the parasite burden of infected ears and draining lymph nodes. The results obtained from experiments were expressed as the mean ± S.E.M. with the data analyzed (size of the lesions or parasite burden) by ANOVA and Dunnett hoc tests, considering a significance level of p < 0.05.

A short description of data set [4]: PAMPA-GIT permeability.
From the text: as §1

A short description of data set [5]: Aqueous solubility by UV spectroscopy. In kind it is physicochemical. The settings on record: phosphate buffer solution, buffer solution pH 7.4, 37 °C. As to the method:
The solubility assay was carried out by correlating the concentration with the absorbance obtained by ultraviolet. First, a stock solution of the compound was prepared by dissolving 1 mg in 20 mL of methanol, and then the wavelength of greatest absorption of each compound was obtained by scanning between wavelengths from 200 nm to 500 nm. From the stock solution, six dilutions were prepared (dilution factor: 2.5), and the absorbance reading was performed in quartz cuvettes (10 mm optical path) in the UV-VIS spectrophotometer (Femto 800XI) at the previously determined wavelength. With the values obtained, a calibration curve with linear regression was made, in which the linearity of the analytical method is observed, with values of correlation coefficient (p > 0.95).
The compound was dissolved in a phosphate buffer solution (pH 7.4), prepared according to the Brazilian Pharmacopoeia (Vol.1) to obtain a supersaturated solution. The supersaturated aqueous solution was kept under stirring for 4 hours at 37°C and then the sample was filtered on a 0.45 μm filter to carry out the reading at the corresponding wavelength of the compound. The solubility was then determined through the equation of the straight line obtained by the linear regression of the calibration curve of each compound [19].

A short description of data set [6]: Plasma stability. It is filed as in vitro ADME, rat. As to the method:
For analysis of plasma stability, the LASSBio-1491 in a final concentration of 5 μM from stock solution of 1 mM, was added in 50 μL of rat plasma solution diluted in 250 μL with PBS (pH 7.4) and was placed in a shaker at 37 °C under vigorous stirring for 0, 30, 60, 120 and 240 minutes. After each reaction time, 500 μL of cold methanol and 500 μL of cold acetonitrile containing 5 uM of methyl 1,1’biphenyl-4-carboxylate 5 μM (internal standard) were added to the wells to stop the reaction. The solution was mixed and centrifuged at 24500 x g for 15 min (Universal centrifuge 320R Hettich®). The supernatant (1 mL) was filtrated and placed in vials to be analyzed by HPLC-PDA, Shimadzu—LC20AD, Kromasil C-18 column (4.6 mm x 250 mm, 5 μm), SPD M20A diode array detector, flow 1 mL/min, mobile phase acetonitrile: water 1:1 (v/v) for LASSBio-1491 and acetonitrile: water 60:40 (v/v) for LASSBio-1736, for 20 minutes at 254 nm wavelength.

Data set [7] is described as follows: Microsomal metabolism. It is filed as in vitro ADME. The settings on record: rat liver microsomes, without NADPH regenerating system. (In general: Liver microsomes are a subcellular fraction often used to study metabolism.)
Setting [8] is: LASSBio-1491 10 μmol/Kg/day, glucantime 30 μmol/Kg/day x 28 days, i.p.

The structures appear in SMILES notation. “And” between values parts separate entries of the source, which are not always exact repeats. Equal values may be shown once.

In general, Papp refers to a coefficient for how fast a substance crosses the barrier. High values mean fast passage, low ones slow passage. The IC50 is the concentration needed to halve the response being measured. By solubility is commonly meant the concentration that dissolves in the medium under given conditions. By half-life is commonly meant the time needed for the level to fall by half in the phase considered. A high value points to slow decline. In data set [1] (PAMPA), `O=C(N/N=C/c1ccc([N+](=O)[O-])o1)NNC(=O)c1ccc(Cl)cc1` [LASSBio-1491] showed a Papp of 2.96 ×10⁻⁶ cm/s. The Classification entry in data set [1] (PAMPA-BBB) was “CNS+/-”. Besides, the “times less potent than pentamidine” value in data set [2] is listed as “about 10 times”. This molecule returned an IC50 in data set [2] (Leishmania major, 48 h) of 7.5 ± 0.3 µM. Moreover, the Emax in data set [2] (Leishmania major, read-out: Maximum effect (% ± S.E.M.)) amounted to 68.4 ± 0.1%. Besides, in data set [3] (setting [8]), the lesion size entry is “reduced lesion size only between days 7 and 17”; the “parasite load in draining lymph node” value is given as “decreased parasite load”; the “parasite load in infected ear” value is “decreased parasite load”. Moreover, the “times more efficient than glucantime” value in data set [3] (similar effect at a dose three times lower) is recorded as 3 times. Further, the Classification entry in data set [4] (GIT-PAMPA) was “High (high intestinal permeability (70–100%))”. Further, the Fa experimental in data set [4] (GIT-PAMPA, absorbed fraction) is recorded as 78.8%. Also, the Papp in data set [4] (PAMPA) was determined as 4.08 ×10⁻⁶ cm/s. The solubility at 4 h in data set [5] is 8.72 µM and 3.06 µg/mL. Moreover, in data set [6] (rat plasma), the “Elimination rate constant (k)” value turned out to be 0.0006 and the t1/2 is on record as 19.25 h. The Metabolism rate in data set [6] (rat plasma, 5 μM, 37 °C, up to 240 min) was found to be 15.11%. This molecule also had a half-life at 5 μM in data set [6] (rat, rat plasma diluted with PBS, pH 7.4, rat plasma) of 1730 min. Also, the recovery at 5 μM in data set [6] (rat, rat plasma diluted with PBS, pH 7.4, read-out: Recovery rate) came to 88.5%. The “Metabolism rate non co-factor” value in data set [7] was found to be 10.87%.
